# Experimental data from paper PMC7661967, “Magnetic Resonance Molecular Imaging of Extradomain B Fibronectin Improves Imaging of Pancreatic Cancer Tumor Xenografts” (Frontiers in Oncology, 2020).
# “Also recorded” adds a separate entry of the source. No end group written: not given here.
# Legend:
# [1] = Spleen CNR in contrast-enhanced MRI; assay type: in vivo, nu/nu mice; conditions: BxPC3-GFP-Luc intrapancreatic model (n = 3), p > 0.05
# Method: (§1) Flank tumor-bearing mice were anesthetized and a tail vein catheter inserted. MR image acquisition was performed on a 7T Biospin (Bruker, Billerica, MA) preclinical small animal scanner with a volume radiofrequency coil. Axial images were obtained using a multi-spin multi-echo (MSME) MRI sequence (500 ms TR, 8.1 ms TE, 90° FA, 4.50 cm × 4.50 cm FOV, 1.50 mm slice thickness, 16 slices, 2 averages, 200 × 200 matrix, 0.0225 × 0.0225 cm/pixel resolution). Contrast agents were injected at a dose of 0.1 mmol/kg (100 μL) via the tail vein catheter, followed by a saline flush. Images of the tumors were acquired before contrast and at various time points after contrast administration. Gd(HP-DO3A) was used as a control.
# (§2) Mice bearing intrapancreatic tumors were anesthetized and a tail vein catheter was inserted. Image acquisition was performed on a MR Solutions 3T MRS 3000 scanner with a mouse radiofrequency coil. […]
# (§3) Image files were exported and analyzed in Horus software. […] The contrast-to-noise ratio of the tumor (CNR) was calculated using the following equation, where σnoise is the standard deviation of intensities from an ROI drawn outside of the mouse body: […]
# [2] = T1 and T2 relaxivity measurement at 3T; assay type: physicochemical
# Method: The T1 and T2 values of MT218 and Gd(HP-DO3A) solutions were determined using a 3T MRS 3000 scanner (MR Solutions, Guildford, UK). Solutions of MT218 were prepared at concentrations of 0, 0.25, 0.5, 1, and 2 mM in DPBS buffer (Gibco, Gaithersburg, MD). T1 values were measured using an inversion recovery-fast low angle shot (IR-FLASH) sequence (τ = 10 ms, TE = 4 ms, FA = 8°, echoes/frames = 128, FOV = 40 mm × 40 mm, slice thickness = 2 mm, number of averages = 1, time delay = 4,000 ms, sample period = 200, matrix = 256 × 128). T2 values were obtained using a multi-echo multi-slice (MEMS) sequence (TE = 15 ms, […], echoes = 10, FOV: 40 mm × 40 mm, slice thickness = 1 mm, number of averages = 1, matrix = 256 × 192). The r1 and r2 relaxivities were calculated from the slopes of 1/T1 and 1/T2 vs. Gd concentration plots, respectively.
# [3] = Kidney CNR in contrast-enhanced MRI; assay type: in vivo, nu/nu mice; conditions: all tested mice, p > 0.05; BxPC3-GFP-Luc (n = 3) and PANC-1-GFP-Luc (n = 6) models
# Method: as §1, §2, §3
# [4] = molecular target: T1, EDB fragment of FN (Homo sapiens, UniProt P02751); assay: Microscale thermophoresis binding affinity; conditions: MST
# T1 construct: The EDB fragment of FN was expressed in E. coli; made in house; host or cells: E. coli
# Method: The binding affinity of MT218 was determined with microscale thermophoresis (MST) using a Nanotemper Monolith NT.115 instrument (NanoTemper Technologies, Munich, Germany). The EDB fragment of FN was expressed in E. coli, purified, and labeled with amine-reactive dye NT-647. MT218 was dissolved into assay buffer (50 mM PBS w/0.05% Tween-20). This solution was further diluted using assay buffer to give a series of MT218 working solutions. Each MT218 working solution was then mixed with a fixed concentration of fluorescently labeled EDB fragment. The mixtures of MT218 and EDB were then loaded into standard capillaries, and MST measurements were performed at 25°C using 20–80% light-emitting diode power and 40% infrared-laser power at varying concentrations of MT218.
# [5] = test system: Capan-1 flank tumor xenografts; assay: MRMI of Capan-1 flank tumor xenografts (7T); assay type: in vivo, human cells in female nu/nu mice
# Method: For flank xenograft models, 4 × 10^6 Capan-1 cells suspended in 100 μL of a 6 mg/mL Matrigel (Corning, Corning, NY) solution was injected subcutaneously into the flank of 8-week-old female nu/nu mice. The tumor bearing mice were imaged after tumor volumes exceeded 300 mm^3. For orthotopic intrapancreatic models, the pancreas of 4-week-old female nu/nu mice were surgically exposed via a ~10 mm incision in the left ventral abdomen and the application of gentle pressure to express the spleen and associated pancreatic tissue. 1 × 10^6 BxPC3-GFP-Luc or PANC-1-GFP-Luc cells suspended in 100 μL of a Matrigel solution (6 mg/mL) was injected into the pancreatic tissue using an insulin syringe with a 31G needle. Any leakage of cell suspension was lavaged with DPBS twice to prevent intraabdominal seeding PaCa cells. The peritoneal fascia was closed with absorbable stitches, and the dermis closed with stainless steel wound clips. Prior to imaging, growth of tumor was verified by bioluminescence imaging with intraperitoneal injection of d-luciferin on IVIS Spectrum system (Perkin Elmer, Waltham, MA).
# as §1
# Image files were exported and analyzed in Horus software. ROIs were drawn in the tumor, liver, kidney, and muscle. Muscle ROIs were taken from the muscle, with other structures (liver, kidney, tumor) identified after comparison with published images and comparison with anatomical landmarks or bioluminescent imaging. Pancreatic lesions were localized using the liver, kidney, and spleen as anatomical landmarks. […] Size of ROIs drawn for image analysis are summarized in Supplementary Table 1. The contrast-to-noise ratio of the tumor (CNR) was calculated using the following equation, where σnoise is the standard deviation of intensities from an ROI drawn outside of the mouse body:
# CNR=Mean IntensityTumor-Mean IntensityMuscle/σnoise.
# Image subtraction was performed on images adjusted to the same window and level in FIJI open-source software.
# Image contrast was reported as fold enhancement of contrast to noise ratio of post-contrast images over pre-contrast images using Fold Enhancement = CNRpost/CNRpre. Statistical analysis of CNR was performed in Minitab Express (Minitab Inc., State College, PA). One-way ANOVA with Fisher Individual Tests for Differences of Means post-hoc testing was performed to determine statistical significance between >2 means (p < 0.05). Student's T test was used to determine statistical significance between 2 means (p < 0.05).
# T1 sequence (P02751 1271-1359 limits assumed): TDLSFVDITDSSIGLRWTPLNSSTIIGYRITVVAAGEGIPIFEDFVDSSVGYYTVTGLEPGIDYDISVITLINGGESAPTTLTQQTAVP
substance,measurement,setting,value
"ZD2-N3-Gd(HP-DO3A) (TVRTSAD; also: conjugated via N3 to Gd(HP-DO3A) contrast agent, end not given here) [MT218, small molecular conjugate of ZD2 peptide to a macrocyclic clinical MRI contrast agent Gd(HP-DO3A)]","spleen CNR, MT218 vs Gd(HP-DO3A)",[1],"No significant (n.s, p>0.05) difference in spleen CNR"
same,T1 relaxivity (r1),"[2]; 0-2 mM MT218 in DPBS buffer, IR-FLASH",6.07 ± 1.13 s⁻¹ mM⁻¹
same,T2 relaxivity (r2),"[2]; 0-2 mM MT218 in DPBS buffer, MEMS",8.20 ± 0.18 s⁻¹ mM⁻¹
same,T1 relaxivity relative to Gd(HP-DO3A),[2]; targeted agent vs corresponding clinical agent,~2 fold
same,"kidney CNR, MT218 vs Gd(HP-DO3A)",[3],"No significant (n.s, p>0.05) difference in kidney CNR"
same,binding affinity (in words),[4]; MT218 to EDB-FN,micromolar affinity; also recorded: moderate binding affinity
same,Kd,"[4]; NT-647-labeled EDB fragment, 50 mM PBS w/0.05% Tween-20, 25°C",3.2 ± 0.2 µM
same,contrast enhancement in tumor periphery,"[5]; 0.1 mmol/kg, 5 min post-injection, MT218 vs Gd(HP-DO3A)",Stronger contrast enhancement
same,maximum increase of tumor CNR (post/pre),"[5]; 0.1 mmol/kg, 15 min post-injection, MT218 n = 7",4.8 fold
same,contrast enhancement in tumor core,"[5]; 0.1 mmol/kg, after injection",gradually increased
same,"enhancement in tumor periphery, subtraction images","[5]; 0.1 mmol/kg, early time points (5–15 min post-contrast)",strong initial enhancement
same,"contrast enhancement throughout tumors, subtraction images","[5]; 0.1 mmol/kg, later time points (25–35 min) for MT218, all time points for Gd(HP-DO3A)",robust tumor contrast enhancement throughout the tumors
same,duration for which CNR increase maintained,"[5]; 0.1 mmol/kg, post-injection",at least 35 min
same,MT218 CNR relative to Gd(HP-DO3A) control,"[5]; Capan-1 flank, control Gd(HP-DO3A), p < 0.05",273%
same,CNR relative to clinical agent,"[5]; Capan-1 flank, vs Gd(HP-DO3A), p < 0.05",2.7 times
